Laboratory results reported in US8852664B2, “Neo-menthyl derivatives as flavor materials” (Symrise AG, priority 2008, dated 2014).

Assay: Flavor profile determined by a trained panel of at least 5 testers
Type: in vivo
Description: The flavor profiles were determined by a trained panel of at least 5 testers by tasting against a 0.5% strength salt and a 0.5% strength sugar solution

[1] = table of further examples, prepared from racemic neo-menthol or neo-menthylamine and tasted
[2] = trained panel of at least 5 testers, tasting against a 0.5% strength salt and a 0.5% strength sugar solution

## CCOCCCNC(=O)O[C@H]1C[C@H](C)CC[C@H]1C(C)C (racemic)
[1]
  Flavor Profile: rancid, musty, bitter, umami

## CC(C)[C@@H]1CC[C@@H](C)C[C@@H]1NC(=O)NCC1COC(C)(C)O1 (mixture of isomers)
[1]
  Flavor Profile: sweet, umami

## CC(C)[C@@H]1CC[C@@H](C)C[C@@H]1OC(=O)NCC1CCCO1 (mixture of isomers)
[1]
  Flavor Profile: bitter, long-lasting, umami

## COCCCNC(=S)N[C@H]1C[C@H](C)CC[C@H]1C(C)C (racemic)
[1]
  Flavor Profile: very bitter, umami

## CCOC(=O)CC(C)NC(=O)O[C@H]1C[C@H](C)CC[C@H]1C(C)C (mixture of isomers)
[1]
  Flavor Profile: bitter, dry-dusty, tingling, slightly umami

## CC(C)[C@@H]1CC[C@@H](C)C[C@@H]1OC(=O)NCCOCCO (racemic)
[1]
  Flavor Profile: fatty, tallow, oily, salty, metallic

## COCCNC(=O)O[C@H]1C[C@H](C)CC[C@H]1C(C)C (racemic)
[1]
  Flavor Profile: sweet, umami

## COCCCNC(=O)O[C@H]1C[C@H](C)CC[C@H]1C(C)C [(9), (3-methoxy-propyl)-carbamic acid (1S,2S,5R)-2-isopropyl-5-methyl-cyclohexyl ester]
[2]
  Flavor Profile: umami, salty, metallic, bitter

## CC(C)[C@@H]1CC[C@@H](C)C[C@@H]1NC(=O)NC1CC1 (racemic)
[1]
  Flavor Profile: bitter, long-lasting, salty, umami

## 1-((1S,2S,5R)-2-Isopropyl-5-methyl-cyclohexyl)-3-(2-methoxy-1-methyl-ethyl)-urea (5)/1-((1R,2R,5S)-2-isopropyl-5-methyl-cyclohexyl)-3-(2-methoxy-1-methyl-ethyl)-urea (6) [Synthesis Example 3]
[2]
  Flavor Profile: long-lasting, salty, umami

## CCNC(=O)O[C@H]1C[C@H](C)CC[C@H]1C(C)C (racemic)
[1]
  Flavor Profile: cooling, umami, menthol note

## 3-[3-((1S,2S,5R)-2-Isopropyl-5-methyl-cyclohexyl)-ureido]-butyric acid ethyl ester (7)/3-[3-((1R,2R,5S)-2-isopropyl-5-methyl-cyclohexyl)-ureido]-butyric acid ethyl ester (8) [Synthesis Example 4]
[2]
  Flavor Profile: bitter, salty, metallic, umami

## CC(C)[C@@H]1CC[C@@H](C)C[C@@H]1OC(=O)NC1CCCCC1 (racemic)
[1]
  Flavor Profile: weakly sweet and weakly umami

## COCC(C)NC(=O)O[C@H]1C[C@H](C)CC[C@H]1C(C)C (mixture of isomers)
[1]
  Flavor Profile: bitter, metallic, umami

## CC(C)[C@@H]1CC[C@@H](C)C[C@@H]1OC(=O)NC1CCCC1 (racemic)
[1]
  Flavor Profile: bitter, salty

## COCCCNC(=O)O[C@@H]1C[C@@H](C)CC[C@@H]1C(C)C [(10), (3-methoxy-propyl)-carbamic acid (1R,2R,5S)-2-isopropyl-5-methyl-cyclohexyl ester]
[2]
  Flavor Profile: umami, salty, metallic, not bitter

## CCOC(=O)CCCNC(=O)O[C@H]1C[C@H](C)CC[C@H]1C(C)C [(11), 4-((1S,2S,5R)-2-isopropyl-5-methyl-cyclohexyloxycarbonylamino)-butyric acid ethyl ester]
[2]
  Flavor Profile: salty, umami, relatively weak in comparison with the racemate

## COCCNC(=O)N[C@H]1C[C@H](C)CC[C@H]1C(C)C (racemic)
[1]
  Flavor Profile: fishy, salty, umami

## CC(C)[C@@H]1CC[C@@H](C)C[C@@H]1NC(=O)NCc1ccccc1 (racemic)
[1]
  Flavor Profile: long-lasting, umami

## CC(C)[C@@H]1CC[C@@H](C)C[C@@H]1NC(=O)NCC1CCCO1 (mixture of isomers)
[1]
  Flavor Profile: salty, weakly umami

## CC(C)[C@@H]1CC[C@@H](C)C[C@@H]1OC(=O)NCCCO (racemic)
[1]
  Flavor Profile: soapy, vegetable, asparagus, potato, mouthfeel, slightly umami

## CC(C)[C@@H]1CC[C@@H](C)C[C@@H]1OC(=O)Nc1ccccc1 (racemic)
[1]
  Flavor Profile: bitter, dry, dusty, umami, dull

## CC(C)[C@@H]1CC[C@@H](C)C[C@@H]1OC(=O)NCc1ccc2c(c1)OCO2 (racemic)
[1]
  Flavor Profile: bitter, umami

## CCNC(=S)N[C@H]1C[C@H](C)CC[C@H]1C(C)C (racemic)
[1]
  Flavor Profile: bitter, dry-dusty, umami

## CC(C)[C@@H]1CC[C@@H](C)C[C@@H]1NC(=O)NCCOCCO (racemic)
[1]
  Flavor Profile: fatty, oily (fish), umami
